Several values for one entry are separate records, joined by “and”; a condition that tells them apart may be missing. Identical values can stand only once.
Columns and labels:
[1] = target: T1, Sodium-dependent dopamine transporter (Rattus norvegicus, UniProt P23977); test: Ability to displace [3H]WIN-35428 binding to dopamine transporter from rat striatal membranes
[2] = target: Sodium-dependent dopamine transporter (Rattus norvegicus) (UniProt P23977); test: Hill coefficient was determined
[3] = target: T1, Sodium-dependent dopamine transporter; test: Inhibition of high-affinity uptake of [3H]dopamine at dopamine transporter into rat striatal nerve endings (synaptosomes); format: subcellular, Brain
[4] = target: Sodium-dependent dopamine transporter (Rattus norvegicus) (UniProt P23977)

T1 sequence (P23977 whole entry): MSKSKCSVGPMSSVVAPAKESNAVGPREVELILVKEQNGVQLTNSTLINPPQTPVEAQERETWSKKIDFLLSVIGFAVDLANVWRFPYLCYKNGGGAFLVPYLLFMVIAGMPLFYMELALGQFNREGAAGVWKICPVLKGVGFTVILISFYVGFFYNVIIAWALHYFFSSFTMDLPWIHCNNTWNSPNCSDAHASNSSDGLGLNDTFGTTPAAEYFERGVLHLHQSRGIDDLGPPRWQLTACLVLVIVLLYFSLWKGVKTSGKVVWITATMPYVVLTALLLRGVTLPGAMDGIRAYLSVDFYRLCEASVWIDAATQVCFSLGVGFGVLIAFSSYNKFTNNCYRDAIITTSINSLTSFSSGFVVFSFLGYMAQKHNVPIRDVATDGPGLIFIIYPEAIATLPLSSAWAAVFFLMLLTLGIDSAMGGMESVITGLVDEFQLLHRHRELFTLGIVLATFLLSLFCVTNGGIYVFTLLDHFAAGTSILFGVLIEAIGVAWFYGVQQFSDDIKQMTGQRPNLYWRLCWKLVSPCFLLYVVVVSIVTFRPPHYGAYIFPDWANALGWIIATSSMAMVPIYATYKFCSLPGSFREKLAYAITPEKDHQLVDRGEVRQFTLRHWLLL
Sodium-dependent dopamine transporter (Rattus norvegicus), sequence (P23977 whole entry): as above

Compound: COC(=O)[C@H]1CN(C)CC[C@H]1c1ccc(Cl)cc1
- IC50 [1]: 0.653 µM
- Hill coefficient [2]: 0.96 and 1.08
- IC50 [3]: 0.195 µM

Compound: CN1CC[C@@H](c2ccc(Cl)cc2)C(CO)C1 (stereo partly specified)
- IC50 [1]: 0.442 µM
- Hill coefficient [4]: 0.66

Compound: CC(=O)OCC1CN(C)CC[C@H]1c1ccc(Cl)cc1 (stereo partly specified)
- IC50 [1]: 0.928 µM
- Hill coefficient [4]: 0.89 and 1.07
- IC50 [3]: 2.02 µM

Compound: COC(=O)C1CN(C)CC[C@@H]1c1ccccc1 (stereo partly specified)
- IC50 [1]: 0.769 µM
- Hill coefficient [2]: 1.02

Compound: CC(=O)OC[C@@H]1CN(C)CC[C@@H]1c1ccc(Cl)cc1
- Hill coefficient [4]: 0.66 and 1.03

Compound: CCC[C@@H]1CN(C)CC[C@@H]1c1ccc(Cl)cc1
- Hill coefficient [2]: 0.64 and 1.04

Compound: COC(=O)[C@@H]1CN(C)CC[C@@H]1c1ccc(Cl)cc1
- Hill coefficient [4]: 0.78 and 0.94

Compound: COC(=O)[C@H]1CN(C)CC[C@@H]1c1ccc(Cl)cc1 (racemic)
- IC50 [1]: 0.197 µM
- Hill coefficient [4]: 0.91

Compound: COC(=O)[C@@H]1CN(C)CC[C@@H]1c1ccc(Cl)cc1 (racemic)
- Hill coefficient [4]: 0.91 and 1.04

Compound: CC(=O)OCC1CN(C)CC[C@@H]1c1ccc(Cl)cc1 (single isomer, unassigned)
- IC50 [1]: 0.461 µM
- Hill coefficient [4]: 0.76

Compound: CCCC1CN(C)CC[C@@H]1c1ccc(Cl)cc1 (single isomer, unassigned)
- IC50 [1]: 0.0172 µM
- Hill coefficient [2]: 0.85 and 1.03
- IC50 [3]: 0.0232 µM

Compound: COC(=O)C1CN(C)CC[C@H]1c1ccc(Cl)cc1 (single isomer, unassigned)
- Hill coefficient [2]: 0.81 and 0.95
- IC50 [3]: 5.09 µM

Compound: COC(=O)C1CN(C)CC[C@@H]1c1ccc(Cl)cc1 (single isomer, unassigned)
- Hill coefficient [4]: 0.78 and 0.97

Compound: COC(=O)[C@H]1[C@@H](OC(=O)c2ccccc2)CC2CC[C@H]1N2C (single isomer, unassigned)
- Hill coefficient [4]: 0.87 and 1.06

Compound: CN1CC[C@H](c2ccc(Cl)cc2)C(CO)C1 (single isomer, unassigned; (+)-13) [listing 1 of 2 here]
- IC50 [1]: 0.24 µM
- IC50 [3]: 0.683 µM

Compound: CN1CC[C@H](c2ccc(Cl)cc2)C(CO)C1 (single isomer, unassigned; (+)-13) [listing 2 of 2 here]
- Hill coefficient [4]: 0.85 and 1.09

Compound: CN1CC[C@H](c2ccc(Cl)cc2)C(CO)C1 (single isomer, unassigned; (-)-5) [listing 1 of 2 here]
- IC50 [1]: 0.0753 µM
- IC50 [3]: 0.049 µM

Compound: CN1CC[C@H](c2ccc(Cl)cc2)C(CO)C1 (single isomer, unassigned; (-)-5) [listing 2 of 2 here]
- Hill coefficient [4]: 0.56 and 1.04
